Numbered stars: 1 amine (or outer) side, 2 acyl side, 3 side chain; on linkers, the order of the positions; unused ones are H or OH. Square brackets hold non-standard residues; d marks the D form. Side chains are listed from the residue outwards. Peptide text beside a SMILES is read from it. * marks the point of attachment. C20 diacid = O=C(O)CCCCCCCCCCCCCCCCCCC(=O)*; C18 diacid = O=C(O)CCCCCCCCCCCCCCCCC(=O)*; αMePhe(2-F) = C[C@](N)(Cc1ccccc1F)C(=O)O; γGlu = O=C(O)[C@H](CCC(=O)[*:2])N[*:1]; αMeY = C[C@](N)(Cc1ccc(O)cc1)C(=O)O; 4Pal = N[C@@H](Cc1ccncc1)C(=O)O; αMeL = CC(C)C[C@](C)(N)C(=O)O; Orn = NCCC[C@H](N)C(=O)O; Dab = NCC[C@H](N)C(=O)O; AEEA = NCCOCCOCC(=O)O; Aib = CC(C)(N)C(=O)O
What was measured:
[1] = target: T1, gastric inhibitory peptide receptor (GIPR) (Homo sapiens, UniProt P48546); test: cAMP pharmacological functional assay in presence of casein, hGIPR; format: cell-based; conditions: HEK293 cells expressing hGIPR, 0.1% Casein, geometric mean; read-out: hGIPR cAMP Rel EC50 nM (SEM, n)
T1 sequence (P48546 22-466): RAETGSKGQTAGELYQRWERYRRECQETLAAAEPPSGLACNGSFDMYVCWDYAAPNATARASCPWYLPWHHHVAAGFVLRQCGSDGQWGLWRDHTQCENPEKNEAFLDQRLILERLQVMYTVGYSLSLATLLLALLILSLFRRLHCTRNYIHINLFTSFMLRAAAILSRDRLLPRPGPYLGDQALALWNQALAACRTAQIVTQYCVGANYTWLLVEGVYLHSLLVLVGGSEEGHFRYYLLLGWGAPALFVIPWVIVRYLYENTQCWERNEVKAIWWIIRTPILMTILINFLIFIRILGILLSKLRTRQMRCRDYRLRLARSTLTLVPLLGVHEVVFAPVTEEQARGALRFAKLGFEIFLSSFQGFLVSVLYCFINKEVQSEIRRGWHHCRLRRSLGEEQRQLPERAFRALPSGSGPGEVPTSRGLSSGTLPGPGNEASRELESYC

human GLP-1R = human GLP-1R (Homo sapiens, UniProt P43220); test: [125I]-GLP-1 binding (SPA), human GLP-1 receptor; parameters: expressed in transfected cells; crude membranes; conditions: read-out: hGLP1R Ki, (nM) (SEM, n)
Outline: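 Ki values are geometric means with SEM over independent replicates on different days, derived from IC50s fitted by four-parameter nonlinear regression. The assay used crude cell membranes in HEPES buffer, pH 7.4, containing CaCl2, MgCl2, bacitracin and TWEEN-20.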

[2] = target: human GLP-1 receptor (GLP-1R) (Homo sapiens, UniProt P43220); test: cAMP pharmacological functional assay in presence of casein, hGLP-1R; format: cell-based; conditions: HEK293 cells expressing hGLP-1R, 0.1% Casein, geometric mean; read-out: hGLP1R cAMP Rel EC50 nM (SEM, n)
human GIP receptor = target: T2, human GIP receptor (Homo sapiens, UniProt P48546); test: [125I]-GIP binding (SPA), human GIP receptor; conditions: read-out: hGIPR Ki, nM (SEM, n)
T2 construct: expressed in transfected cells; crude membranes
T2 sequence (P48546 22-466): T1 sequence (P48546 22-466)

human Gcg receptor = target: T3, human Gcg receptor (Homo sapiens, UniProt P47871); test: [125I]-Glucagon binding (SPA), human Gcg receptor; conditions: read-out: hGLcgR Ki, nM (SEM, n)
T3 construct: expressed in transfected cells; crude membranes
Outline: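 Crude membranes from cells expressing the receptor, prepared by hypotonic lysis in 50 mM Tris HCl pH 7.5 with protease inhibitors, homogenization and differential centrifugation, were used in a WGA-bead SPA. Binding buffer: 25 mM HEPES pH 7.4, 2.5 mM CaCl2, 1 mM MgCl2, bacitracin, Tween-20.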

human GLP-1R, sequence (P43220 24-463): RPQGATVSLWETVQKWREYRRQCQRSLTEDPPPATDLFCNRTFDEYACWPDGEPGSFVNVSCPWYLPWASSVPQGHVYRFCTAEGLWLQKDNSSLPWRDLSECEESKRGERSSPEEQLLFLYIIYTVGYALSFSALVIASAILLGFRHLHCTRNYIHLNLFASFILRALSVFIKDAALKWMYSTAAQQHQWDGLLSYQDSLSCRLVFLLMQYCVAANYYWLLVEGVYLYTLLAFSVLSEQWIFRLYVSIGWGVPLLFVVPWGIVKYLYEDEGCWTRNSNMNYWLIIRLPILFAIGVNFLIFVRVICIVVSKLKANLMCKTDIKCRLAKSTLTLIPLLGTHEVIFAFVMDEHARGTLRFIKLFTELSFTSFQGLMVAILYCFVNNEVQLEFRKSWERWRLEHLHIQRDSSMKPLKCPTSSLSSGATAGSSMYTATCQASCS
human GLP-1 receptor (GLP-1R), sequence (P43220 24-463): as above
T3 sequence (P47871 26-477): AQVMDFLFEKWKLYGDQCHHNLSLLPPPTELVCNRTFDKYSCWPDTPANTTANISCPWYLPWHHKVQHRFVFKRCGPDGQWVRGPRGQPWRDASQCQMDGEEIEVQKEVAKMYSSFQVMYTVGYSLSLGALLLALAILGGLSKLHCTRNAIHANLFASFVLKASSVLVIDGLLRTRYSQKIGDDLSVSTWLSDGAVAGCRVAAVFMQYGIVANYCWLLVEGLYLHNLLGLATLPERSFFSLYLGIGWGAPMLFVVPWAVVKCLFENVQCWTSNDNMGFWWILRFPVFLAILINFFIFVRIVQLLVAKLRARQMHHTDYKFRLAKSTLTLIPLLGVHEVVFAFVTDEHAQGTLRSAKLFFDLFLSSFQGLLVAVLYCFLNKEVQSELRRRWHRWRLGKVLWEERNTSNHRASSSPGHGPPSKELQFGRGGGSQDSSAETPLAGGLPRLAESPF

CC[C@H](C)[C@H](NC(=O)[C@H](CC(C)C)NC(=O)[C@H](Cc1ccc(O)cc1)NC(=O)[C@@H](CCC(=O)O)NC(=O)[C@@H](NC(=O)[C@H](Cc1ccccc1)NC(=O)[C@H](CCC(=O)O)NC(=O)C(C)(C)NC(=O)[C@H](CCC(N)=O)NC(=O)[C@H](C)NC(=O)[C@H](CCCCNC(=O)COCCOCCNC(=O)COCCOCCNC(=O)CC[C@H](NC(=O)CCCCCCCCCCCCCCCCCCC(=O)O)C(=O)O)NC(=O)[C@H](CCC(=O)O)NC(=O)[C@H](CC(=O)O)NC(=O)[C@H](CC(C)C)NC(=O)[C@](C)(CC(C)C)NC(=O)[C@H](CO)NC(=O)[C@H](Cc1ccc(O)cc1)NC(=O)[C@H](CC(=O)O)NC(=O)[C@H](CO)NC(=O)[C@@H](NC(=O)[C@](C)(Cc1ccccc1F)NC(=O)[C@@H](NC(=O)CNC(=O)[C@H](CCC(=O)O)NC(=O)C(C)(C)NC(=O)[C@@H](N)Cc1ccc(O)cc1)[C@@H](C)O)[C@@H](C)O)[C@@H](C)CC)C(=O)N[C@@H](CCC(=O)O)C(=O)NCC(=O)NCC(=O)N1CCC[C@H]1C(=O)N[C@@H](CO)C(=O)N[C@@H](CO)C(=O)NCC(=O)N[C@@H](C)C(=O)N1CCC[C@H]1C(=O)N1CCC[C@H]1C(=O)N1CCC[C@H]1C(=O)N[C@@H](CO)C(N)=O [Example 229] (H-Y[Aib]EGT[αMePhe(2-F)]TSDYS[αMeL]LDEK([AEEA-AEEA-γGlu-C20 diacid])AQ[Aib]EFI[dE]YLIEGGPSSGAPPPS-NH2)
EC50 [1]: 4.79 nM | Ki (human GLP-1R): 36.2 nM | EC50 [2]: 2.11 nM | Ki (human GIP receptor): 2.47 nM | Ki (human Gcg receptor): > 1100 nM

CC[C@H](C)[C@H](NC(=O)[C@H](CC(C)C)NC(=O)[C@](C)(Cc1ccc(O)cc1)NC(=O)[C@@H](CCC(=O)O)NC(=O)[C@@H](NC(=O)[C@H](Cc1ccccc1)NC(=O)[C@H](C)NC(=O)C(C)(C)NC(=O)[C@H](CCC(N)=O)NC(=O)[C@H](C)NC(=O)[C@H](CCCCNC(=O)COCCOCCNC(=O)COCCOCCNC(=O)CC[C@H](NC(=O)CCCCCCCCCCCCCCCCC(=O)O)C(=O)O)NC(=O)[C@H](CCCN)NC(=O)[C@H](CC(=O)O)NC(=O)[C@H](CC(C)C)NC(=O)[C@](C)(CC(C)C)NC(=O)[C@@H](NC(=O)[C@H](CO)NC(=O)[C@H](Cc1ccncc1)NC(=O)[C@H](CC(=O)O)NC(=O)[C@H](CO)NC(=O)[C@@H](NC(=O)[C@](C)(Cc1ccccc1F)NC(=O)[C@@H](NC(=O)CNC(=O)[C@H](CCC(=O)O)NC(=O)C(C)(C)NC(=O)[C@@H](N)Cc1ccc(O)cc1)[C@@H](C)O)[C@@H](C)O)[C@@H](C)CC)[C@@H](C)CC)C(=O)N[C@@H](CCC(=O)O)C(=O)NCC(=O)NCC(=O)N1CCC[C@H]1C(=O)N[C@@H](CO)C(=O)N[C@@H](CO)C(=O)NCC(=O)N[C@@H](C)C(=O)N1CCC[C@H]1C(=O)N1CCC[C@H]1C(=O)N1CCC[C@H]1C(=O)N[C@@H](CO)C(N)=O [Example 240] (H-Y[Aib]EGT[αMePhe(2-F)]TSD[4Pal]SI[αMeL]LD[Orn]K([AEEA-AEEA-γGlu-C18 diacid])AQ[Aib]AFI[dE][αMeY]LIEGGPSSGAPPPS-NH2)
EC50 [1]: 0.0223 nM | Ki (human GLP-1R): 0.552 nM | EC50 [2]: 0.0393 nM | Ki (human GIP receptor): 0.0284 nM | Ki (human Gcg receptor): 204 nM

CC[C@H](C)[C@H](NC(=O)[C@H](CC(C)C)NC(=O)[C@](C)(Cc1ccc(O)cc1)NC(=O)[C@@H](CCC(=O)O)NC(=O)[C@@H](NC(=O)[C@H](Cc1ccccc1)NC(=O)[C@H](C)NC(=O)C(C)(C)NC(=O)[C@H](CCC(N)=O)NC(=O)[C@H](C)NC(=O)[C@H](CCCCNC(=O)COCCOCCNC(=O)COCCOCCNC(=O)CC[C@H](NC(=O)CCCCCCCCCCCCCCCCC(=O)O)C(=O)O)NC(=O)[C@H](CCCN)NC(=O)[C@H](CC(=O)O)NC(=O)[C@H](CC(C)C)NC(=O)[C@](C)(CC(C)C)NC(=O)[C@@H](NC(=O)[C@H](CO)NC(=O)[C@@H](NC(=O)[C@H](CC(=O)O)NC(=O)[C@H](CO)NC(=O)[C@@H](NC(=O)[C@](C)(Cc1ccccc1F)NC(=O)[C@@H](NC(=O)CNC(=O)[C@H](CCC(=O)O)NC(=O)C(C)(C)NC(=O)[C@@H](N)Cc1ccc(O)cc1)[C@@H](C)O)[C@@H](C)O)C(C)C)[C@@H](C)CC)[C@@H](C)CC)C(=O)N[C@@H](CCC(=O)O)C(=O)NCC(=O)NCC(=O)N1CCC[C@H]1C(=O)N[C@@H](CO)C(=O)N[C@@H](CO)C(=O)NCC(=O)N[C@@H](C)C(=O)N1CCC[C@H]1C(=O)N1CCC[C@H]1C(=O)N1CCC[C@H]1C(=O)N[C@@H](CO)C(N)=O [Example 242] (H-Y[Aib]EGT[αMePhe(2-F)]TSDVSI[αMeL]LD[Orn]K([AEEA-AEEA-γGlu-C18 diacid])AQ[Aib]AFI[dE][αMeY]LIEGGPSSGAPPPS-NH2)
EC50 [1]: 0.0333 nM | Ki (human GLP-1R): 0.853 nM | EC50 [2]: 0.0164 nM | Ki (human GIP receptor): 0.0604 nM | Ki (human Gcg receptor): 95.9 nM

CC[C@H](C)[C@H](NC(=O)[C@H](CC(C)C)NC(=O)[C@H](Cc1ccc(O)cc1)NC(=O)[C@H](CCC(=O)O)NC(=O)[C@@H](NC(=O)[C@H](Cc1ccccc1)NC(=O)[C@H](C)NC(=O)C(C)(C)NC(=O)[C@H](CCC(N)=O)NC(=O)[C@H](C)NC(=O)[C@H](CCCCNC(=O)COCCOCCNC(=O)COCCOCCNC(=O)CC[C@H](NC(=O)CCCCCCCCCCCCCCCCCCC(=O)O)C(=O)O)NC(=O)[C@H](CCCCN)NC(=O)[C@H](CC(=O)O)NC(=O)[C@H](CC(C)C)NC(=O)[C@H](CC(C)C)NC(=O)[C@@H](NC(=O)[C@H](CO)NC(=O)[C@H](Cc1ccc(O)cc1)NC(=O)[C@H](CC(=O)O)NC(=O)[C@H](CO)NC(=O)[C@@H](NC(=O)[C@](C)(Cc1ccccc1)NC(=O)[C@@H](NC(=O)CNC(=O)[C@H](CCC(=O)O)NC(=O)C(C)(C)NC(=O)[C@@H](N)Cc1ccc(O)cc1)[C@@H](C)O)[C@@H](C)O)[C@@H](C)CC)[C@@H](C)CC)C(=O)N[C@@H](CCC(=O)O)C(=O)NCC(=O)NCC(=O)N1CCC[C@H]1C(=O)N[C@@H](CO)C(=O)N[C@@H](CO)C(=O)NCC(=O)N[C@@H](C)C(=O)N1CCC[C@H]1C(=O)N1CCC[C@H]1C(=O)N1CCC[C@H]1C(=O)N[C@@H](CO)C(N)=O [Example 57]
EC50 [1]: 0.0849 nM | Ki (human GLP-1R): 3 nM | EC50 [2]: 0.0668 nM | Ki (human GIP receptor): 0.0583 nM | Ki (human Gcg receptor): 26.1 nM

CC[C@H](C)[C@H](NC(=O)[C@H](CC(C)C)NC(=O)[C@H](Cc1ccc(O)cc1)NC(=O)[C@@H](CCC(=O)O)NC(=O)[C@@H](NC(=O)[C@H](Cc1ccccc1)NC(=O)[C@H](CCC(=O)O)NC(=O)C(C)(C)NC(=O)[C@H](CCC(N)=O)NC(=O)[C@H](C)NC(=O)[C@H](CCCCNC(=O)COCCOCCNC(=O)COCCOCCNC(=O)CC[C@H](NC(=O)CCCCCCCCCCCCCCCCC(=O)O)C(=O)O)NC(=O)[C@H](CCN)NC(=O)[C@H](CC(=O)O)NC(=O)[C@H](CC(C)C)NC(=O)[C@](C)(CC(C)C)NC(=O)[C@@H](NC(=O)[C@H](CO)NC(=O)[C@H](Cc1ccc(O)cc1)NC(=O)[C@H](CC(=O)O)NC(=O)[C@H](CO)NC(=O)[C@@H](NC(=O)[C@](C)(Cc1ccccc1F)NC(=O)[C@@H](NC(=O)CNC(=O)[C@H](CCC(=O)O)NC(=O)C(C)(C)NC(=O)[C@@H](N)Cc1ccc(O)cc1)[C@@H](C)O)[C@@H](C)O)[C@@H](C)CC)[C@@H](C)CC)C(=O)N[C@@H](CCC(=O)O)C(=O)NCC(=O)NCC(=O)N1CCC[C@H]1C(=O)N[C@@H](CO)C(=O)N[C@@H](CO)C(=O)NCC(=O)N[C@@H](C)C(=O)N1CCC[C@H]1C(=O)N1CCC[C@H]1C(=O)N1CCC[C@H]1C(=O)N[C@@H](CO)C(N)=O [Example 209] (H-Y[Aib]EGT[αMePhe(2-F)]TSDYSI[αMeL]LD[Dab]K([AEEA-AEEA-γGlu-C18 diacid])AQ[Aib]EFI[dE]YLIEGGPSSGAPPPS-NH2)
EC50 [1]: 0.0308 nM | Ki (human GLP-1R): 1.43 nM | EC50 [2]: 0.0374 nM | Ki (human GIP receptor): 0.0664 nM | Ki (human Gcg receptor): > 1060 nM
